Measurements as given in US20200163984A1, “USE OF ISOVALERYL SPIRAMYCIN I, II AND/OR III IN MANUFACTURING MEDICAMENT FOR TREATING AND/OR PREVENTING TUMOR, AND MEDICAMENT” (SHENYANG FUYANG PHARMACEUTICAL TECHNOLOGY CO., LTD., priority 2017, published 2020).
Converted amounts (≈) assume the structure as drawn.

What was measured:
[1] = test system: transplanted tumor of human thyroid cancer cell TPC-1; experiment: TPC-1 transplanted tumor in nude mice; settings: for tumor volume and relative tumor volume compared with the model group: low, medium and high doses, P<0.05
Description: Then cell concentration was adjusted to 1×10^7/ml with matrigel, then each nude mouse was inoculated subcutaneously with 0.2 ml of cells at its right armpit and recorded as the first day of inoculation. When the tumor grows to be greater than or equal to 100 mm^3, the mice were randomly divided into 11 groups with 6 mice in each group: isovaleryl spiramycin I groups with doses of 25, 50 and 100 mg/kg, isovaleryl spiramycin II groups with doses of 25, 50 and 100 mg/kg, and isovaleryl spiramycin III groups with doses of 25, 50 and 100 mg/kg. Each group was continuously administered intragastrically for 30 days with a dose of 20 ml/kg. The mice were sacrificed the next day after drug withdrawal and the indicators were tested. The long diameter and short diameter of the tumor, and the body weight of each mouse were recorded every 3 days from drug administration to nude mouse sacrifice.
The body weight of the nude mice and the long diameter (a) and short diameter (b) of the transplanted tumor were measured every 3 days, and the tumor volume (v), relative tumor volume (RTV) and relative tumor proliferation rate (T/C) are calculated respectively according to the following formulas, wherein V=a×b^2/2; RTV=V/V0 (V0 is the tumor volume before administration, V is the tumor volume before sacrifice), and T/C (%)=treatment group RTV/model control group RTV×100%.
Each mouse was weighed and sacrificed. After the tumor was completely stripped off from the body of the mouse, the non-tumor tissues such as blood stains and fat were removed to weigh the tumor and calculate the tumor growth inhibition rate. The average tumor weight of each group of mice is used as an indicator of efficacy. Tumor growth inhibition rate (%)=(1−the average tumor weight of the treatment group/the average tumor weight of the model group)×100%.

[2] = test system: human breast cancer cells MCF-7; settings: MCF-7, MTT, 48 hours
[3] = test system: human breast cancer cells MDA-MB-231; settings: MDA-MB-231, MTT, 48 hours
[4] = test system: human cervical cancer cell HeLa; settings: MTT, 48 hours
[5] = test system: human esophageal cancer cell TE-1; settings: TE-1, MTT, 48 hours
human glioma cell U251 = settings: U251, MTT, 48 hours
[6] = test system: human hepatoma cells HepG2; settings: HepG2, MTT, 48 hours
[7] = test system: human large cell lung cancer cells H1299; settings: H1299, MTT, 48 hours
[8] = test system: human large cell lung cancer cells H460; settings: H460, MTT, 48 hours
[9] = test system: human pancreatic cancer cell PANC-1; settings: PANC-1, MTT, 48 hours
[10] = test system: human renal clear cell adenocarcinoma cell 786-O; settings: MTT, 48 hours
[11] = TPC-1, high dose (100 mg/kg in method) i.g. 30 days
[12] = TPC-1, low dose (25 mg/kg in method) i.g. 30 days
[13] = TPC-1, medium dose (50 mg/kg in method) i.g. 30 days

## O=P1(N(CCCl)CCCl)NCCCO1 (centres unmarked) [Cyclophosphamide, cyclophosphamide, reference compound]
[1]; dose 30 mg/kg
  Inhibition Rate (%): 71.29%
  Relative Tumor Proliferation Rate (T/C): 37.40%
  Relative Tumor Volume (RTV): 6.16 ± 2.29
  Tumor Weight: 0.69 ± 0.37 g
[1]; dose 30 mg/kg, d 1
  Body Weight (g) (d1): 21.56 ± 1.54 g
  Tumor Volume (mm3) (d 1): 117.10 ± 4.88 mm3
[1]; dose 30 mg/kg, d 30
  Body Weight (g) (d30): 19.16 ± 1.75 g
  Tumor Volume (mm3) (d30): 724.64 ± 285.14 mm3

## CO[C@@H]1[C@@H](O[C@@H]2O[C@H](C)[C@@H](O[C@H]3C[C@@](C)(O)[C@@H](OC(=O)CC(C)C)[C@H](C)O3)[C@H](N(C)C)[C@H]2O)[C@@H](CC=O)C[C@@H](C)[C@@H](O[C@H]2CC[C@H](N(C)C)[C@@H](C)O2)/C=C/C=C/C[C@@H](C)OC(=O)C[C@H]1O [Isovaleryl spiramycin I, isovaleryl spiramycin I]
[2]
  IC50: 20.79 ± 1.57 µg/mL (≈ 22.4 µM)
[3]
  IC50: 18.12 ± 0.61 µg/mL (≈ 19.5 µM)
[4]
  IC50: 10.31 ± 0.27 µg/mL (≈ 11.1 µM)
[5]
  IC50: 8.42 ± 1.53 µg/mL (≈ 9.08 µM)
Human glioma cell U251
  IC50: 11.01 ± 0.32 µg/mL (≈ 11.9 µM)
[6]
  IC50: 17.90 ± 1.74 µg/mL (≈ 19.3 µM)
[7]
  IC50: 24.03 ± 2.07 µg/mL (≈ 25.9 µM)
[8]
  IC50: 19.31 ± 0.35 µg/mL (≈ 20.8 µM)
[9]
  IC50: 9.96 ± 0.46 µg/mL (≈ 10.7 µM)
[10]
  IC50: 5.08 ± 0.08 µg/mL (≈ 5.48 µM)
[1]; [11]
  Relative Tumor Proliferation Rate (T/C): 28.11%
  tumor growth inhibition rate: 67.49%
[1]; [12]
  Relative Tumor Proliferation Rate (T/C): 65.45%
  tumor growth inhibition rate: 23.88%
[1]; TPC-1
  tumor volume and relative tumor volume compared with the model group: significantly lower
[1]; [13]
  Relative Tumor Proliferation Rate (T/C): 43.43%
  tumor growth inhibition rate: 57.28%
[1]; dose 25 mg/kg
  Inhibition Rate (%): 23.88%
  Relative Tumor Proliferation Rate (T/C): 65.45%
  Relative Tumor Volume (RTV): 10.77 ± 2.47
  Tumor Weight: 1.84 ± 0.25 g
[1]; dose 25 mg/kg, d 1
  Tumor Volume (mm3) (d 1): 115.05 ± 9.93 mm3
[1]; dose 25 mg/kg, d 30
  Tumor Volume (mm3) (d30): 1249.28 ± 337.45 mm3
[1]; dose 50 mg/kg
  Inhibition Rate (%): 57.28%
  Relative Tumor Proliferation Rate (T/C): 43.43%
  Relative Tumor Volume (RTV): 7.15 ± 3.19
  Tumor Weight: 1.03 ± 0.44 g
[1]; dose 50 mg/kg, d 1
  Tumor Volume (mm3) (d 1): 119.45 ± 4.30 mm3
[1]; dose 50 mg/kg, d 30
  Tumor Volume (mm3) (d30): 847.07 ± 356.87 mm3
[1]; dose 100 mg/kg
  Inhibition Rate (%): 67.49%
  Relative Tumor Proliferation Rate (T/C): 28.11%
  Relative Tumor Volume (RTV): 4.63 ± 3.34
  Tumor Weight: 0.79 ± 0.43 g
[1]; dose 100 mg/kg, d 1
  Tumor Volume (mm3) (d 1): 112.69 ± 11.49 mm3
[1]; dose 100 mg/kg, d 30
  Tumor Volume (mm3) (d30): 490.15 ± 322.14 mm3
[1]; mouse, in vivo
  mouse weight compared with the model group: no significant changes
[1]; mouse, in vivo, 25 mg/kg
  Body Weight (g) (d1): 21.75 ± 1.23 g
  Body Weight (g) (d30): 24.41 ± 1.32 g
[1]; mouse, in vivo, 50 mg/kg
  Body Weight (g) (d1): 21.53 ± 1.43 g
  Body Weight (g) (d30): 25.77 ± 1.10 g
[1]; mouse, in vivo, 100 mg/kg
  Body Weight (g) (d1): 21.76 ± 1.08 g
  Body Weight (g) (d30): 24.12 ± 1.20 g

## COC1C(OC(C)=O)CC(=O)OC(C)CC=CC=CC(OC2CCC(N(C)C)C(C)O2)C(C)CC(CC=O)C1OC1OC(C)C(OC2CC(C)(O)C(OC(=O)CC(C)C)C(C)O2)C(N(C)C)C1O (centres unmarked) [Isovaleryl spiramycin II, isovaleryl spiramycin II]
[2]
  IC50: 51.14 ± 2.54 µg/mL (≈ 52.8 µM)
[3]
  IC50: 49.60 ± 0.39 µg/mL (≈ 51.2 µM)
[4]
  IC50: 33.31 ± 0.40 µg/mL (≈ 34.4 µM)
[5]
  IC50: 35.59 ± 2.64 µg/mL (≈ 36.7 µM)
Human glioma cell U251
  IC50: 35.35 ± 1.57 µg/mL (≈ 36.5 µM)
[6]
  IC50: 37.94 ± 1.71 µg/mL (≈ 39.1 µM)
[7]
  IC50: 42.24 ± 0.44 µg/mL (≈ 43.6 µM)
[8]
  IC50: 41.16 ± 0.71 µg/mL (≈ 42.5 µM)
[9]
  IC50: 31.93 ± 0.12 µg/mL (≈ 32.9 µM)
[10]
  IC50: 20.18 ± 0.86 µg/mL (≈ 20.8 µM)
[1]; [11]
  Relative Tumor Proliferation Rate (T/C): 38.61%
  tumor growth inhibition rate: 62.04%
[1]; [12]
  Relative Tumor Proliferation Rate (T/C): 86.15%
  tumor growth inhibition rate: 20.91%
[1]; TPC-1
  tumor volume and relative tumor volume compared with the model group: significantly lower
[1]; [13]
  Relative Tumor Proliferation Rate (T/C): 59.08%
  tumor growth inhibition rate: 31.61%
[1]; dose 25 mg/kg
  Inhibition Rate (%): 20.91%
  Relative Tumor Proliferation Rate (T/C): 86.15%
  Relative Tumor Volume (RTV): 14.18 ± 1.70
  Tumor Weight: 1.91 ± 0.33 g
[1]; dose 25 mg/kg, d 1
  Tumor Volume (mm3) (d 1): 119.12 ± 3.42 mm3
[1]; dose 25 mg/kg, d 30
  Tumor Volume (mm3) (d30): 1689.63 ± 210.37 mm3
[1]; dose 50 mg/kg
  Inhibition Rate (%): 31.61%
  Relative Tumor Proliferation Rate (T/C): 59.08%
  Relative Tumor Volume (RTV): 9.72 ± 3.02
  Tumor Weight: 1.65 ± 0.32 g
[1]; dose 50 mg/kg, d 1
  Tumor Volume (mm3) (d 1): 118.54 ± 6.49 mm3
[1]; dose 50 mg/kg, d 30
  Tumor Volume (mm3) (d30): 1148.57 ± 344.78 mm3
[1]; dose 100 mg/kg
  Inhibition Rate (%): 62.04%
  Relative Tumor Proliferation Rate (T/C): 38.61%
  Relative Tumor Volume (RTV): 6.36 ± 2.38
  Tumor Weight: 0.92 ± 0.42 g
[1]; dose 100 mg/kg, d 1
  Tumor Volume (mm3) (d 1): 117.30 ± 6.48 mm3
[1]; dose 100 mg/kg, d 30
  Tumor Volume (mm3) (d30): 754.42 ± 320.69 mm3
[1]; mouse, in vivo
  mouse weight compared with the model group: no significant changes
[1]; mouse, in vivo, 25 mg/kg
  Body Weight (g) (d1): 20.54 ± 1.45 g
  Body Weight (g) (d30): 21.16 ± 1.37 g
[1]; mouse, in vivo, 50 mg/kg
  Body Weight (g) (d1): 20.07 ± 1.13 g
  Body Weight (g) (d30): 12.45 ± 1.63 g
[1]; mouse, in vivo, 100 mg/kg
  Body Weight (g) (d1): 21.78 ± 1.53 g
  Body Weight (g) (d30): 12.11 ± 1.20 g
